Data as given in patent US12594282B2, “Use of small molecule compounds in the treatment of diseases mediated by lung epithelial cell injury and/or vascular endothelial cell injury” (Guangzhou Cellprotek Pharmaceutical Co., Ltd., priority 2020, dated 2026).

Tests used:
NR4A3 mRNA [1] = experiment: NR4A3 mRNA under OGD-R, RAOEC (real-time fluorescent quantitative PCR); assay type: cell-based, rat; details: 10 μM given at restoration
Protocol: (§1) HUVEC cells were cultured in modified DMEM medium containing 10% fetal bovine serum. When the cells reached about 80% confluence, the cells were digested with 0.25% trypsin, and then pipetted evenly with modified DMEM containing 10% […]. The cell concentration was adjusted to 1×10^5 cells/mL, and the cells were seeded at 400 uL/well in a 24-well plate, and the experiment was carried out when the cells grew to about 70% confluence. RAOEC cells were cultured in high-glucose DMEM medium containing 10% fetal bovine serum, and the seeding conditions were the same as those of HUVEC. During the OGD-R injury treatment, the hypoxia workstation was set to have an oxygen concentration of 1% (1% O2, 5% CO2, 94% N2), a temperature of 37° C., and a humidity of 85%. A sugar-free DMEM medium was placed in the hypoxia workstation for pre-hypoxia for 3 hours. The medium in the culture plate was aspirated, and the plate was washed twice with preheated sugar-free DMEM medium, and 100 uL of sugar-free DMEM medium was added to each well. The culture plate was placed in the hypoxia workstation, and 300 uL of pre-hypoxic sugar-free DMEM medium was added to each well, and then the culture plate was placed in the hypoxia workstation for additional hypoxia for 4 hours. Restoration was then performed. […]

NR4A3 [2] = experiment: NR4A3 ubiquitination after OGD-R in vascular endothelial cells (immunoprecipitation with anti-ubiquitin antibodies); assay type: cell-based
Protocol: as §1, with “performed. The culture plate was taken out, and the sugar-free DMEM medium was replaced with 400 uL of normal medium containing 10% fetal bovine serum, and then the plate was placed in a 37° C. 5% CO2 cell incubator for culturing for 24 hours or a specified time period. For the cells in the normal group, it was only replaced with 400 uL of new normal medium containing 10% fetal bovine serum.” for “performed.”
The cells were washed twice with pre-cooled PBS, then scraped off with a cell scraper and transferred to a 1.5 mL centrifuge tube, and centrifugation was performed at 4° C. and 1000 g for 5 minutes. […] Each protein sample was then quantified using the BCA protein quantification kit. After protein quantification, IP lysis buffer was used to adjust the protein concentration of each sample to 1 mg/mL. […]

NR4A3 [3] = experiment: NR4A3/CD31 immunofluorescence of lung tissue, acute hypobaric hypoxia; assay type: in vivo, Macaca fascicularis
Protocol: Paraffin sections of Macaca fascicularis lung tissue, include 3 in the normal control group (normobaric normoxia, NN), 5 in the acute hypobaric hypoxia treatment group (hypobaric hypoxia, HH), and 5 in the acute hypobaric hypoxia+YC-6 treatment group (HH+YC-6).
The paraffin sections were placed in a 65° C. oven for 30 minutes, and then quickly transferred to 100% xylene for dewaxing, and then subjected to rehydration according to the regular process (100% xylene, 5 min—100% xylene, 2 min—100% xylene, 2 min—100% ethanol, 1 min—100% ethanol, 1 min—95% ethanol, 1 min—90% ethanol, 1 min—B0% ethanol, 1 min—70% ethanol, 1 min—50% ethanol, 1 min—distilled water, 1 min×3), and then EDTA antigen retrieval solution (microwave heating) was used for antigen retrieval. After the retrieval, it was naturally cooled to room temperature, and then washed three times with PBS for 5 minutes each time. The residual PBS on the tissue section was removed. A circle was drew around the tissue with an immunohistochemical pen, and then the corresponding primary antibody diluted in DAKO antibody diluent was added to the tissue to make it completely cover the tissue. The tissue section was incubated overnight in a humidified chamber at 4° C. Then it was washed 3 times with PBS for 5 minutes each time. […]

NR4A3 mRNA [4] = experiment: NR4A3 mRNA under OGD-R, HUVEC (real-time fluorescent quantitative PCR); assay type: cell-based, human; details: 10 μM given at restoration
Protocol: as §1

C[C@@]12CCCC1C1C[C@@H](O)[C@]3(O)C[C@@H](O)CC[C@]3(C)C1CC2 (stereo partly drawn) [YC-6, 5α-androst-3β,5,6β-triol]
transcription level of NR4A3 (relative mRNA expression) (NR4A3 mRNA [1]): did not significantly up-regulate the transcription level of NR4A3
ubiquitination of NR4A3 on co-administration with MG132 (NR4A3 [2]; YC-6 10 μM with MG132 100 nM after restoration): did not significantly increase the ubiquitination of NR4A3
ubiquitination modification of NR4A3 induced by restoration (NR4A3 [2]; YC-6 10 μM, MG132 100 nM, given at restoration): could inhibit the ubiquitination of NR4A3 induced by restoration
NR4A3 protein expression in lung tissue endothelial cells (NR4A3 [3]; NR4A3 co-localized with CD31, immunofluorescence): significantly increased the protein expression of NR4A3
expression of vascular endothelial cell marker CD31 in lung tissue (NR4A3 [3]; immunofluorescence): inhibited the down-regulation of the expression of vascular endothelial cell marker CD31
transcription level of NR4A3 (relative mRNA expression) (NR4A3 mRNA [4]): did not significantly up-regulate the transcription level of NR4A3
